Values quoted from earlier work in PMC11246588, “New 1,2,4-oxadiazole derivatives as potential multifunctional agents for the treatment of Alzheimer’s disease: design, synthesis, and biological evaluation” (BMC Chemistry, 2024).

How the values were obtained:
Design in all cases: method as in PMID 18550375, PMID 33017743, PMID 36223681, PMID 34752955, PMID 26077890
Conditions in all cases: Fig. 1; ref [50]–[55]; cited from earlier work
hMAO B = system: hMAO B
BChE = system: BChE
Aβ self-aggregation = system: Aβ self-aggregation

COc1cc(-c2ccc(-c3nc(-c4ccc5[nH]ncc5c4)no3)cc2)cc(OC)c1OC [VI]
IC50 (hMAO B): 52 nM

O=C(CNc1ccc(F)cc1)Nc1ccc(-c2nc(-c3ccnc(Nc4ccc(OC(F)(F)F)cc4)c3)no2)cc1 [IV]
IC50 (BChE): 1280 nM | Inhibited Aβ self-aggregation (Aβ self-aggregation): 51.91%
